Test results reported in patent US10517889B2, “Modulators of SMAD7 expression” (Ionis Pharmaceuticals, Inc., priority 2017, dated 2019).
Several values for one entry are separate records, joined by “and”; a condition that tells them apart may be missing. Equal entries are not always repeated. Strand notation (5' to 3'): a small letter for the sugar, then the base; units joined by * are phosphorothioate-linked, units joined directly phosphodiester-linked; [ ] holds rarer units or linkages, { } end groups; capitals alone tell only the bases. e = 2'-O-(2-methoxyethyl) (MOE); [5mC] = 5-methylcytosine; d = 2'-deoxy (DNA)

Key:
human SMAD7 mRNA [1] = experiment: Dose-dependent inhibition of human SMAD7 mRNA expression in Hep3B cells (Example 3, Study 1 and 2); format: cell-based; settings: electroporation; for % inhibition of SMAD7 mRNA expression: approximately 16 hours; for IC50: Study 1 (312.5-20000 nM)
Method in brief: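 Hep3B cells, 20,000 per well, electroporated with antisense oligonucleotide at 0.31, 1.25, 5.00 or 20.00 μM (first series) or 0.74, 2.22, 6.67 or 20.00 μM (second series). After ~16 h, SMAD7 mRNA measured by RT-qPCR (RTS5062), normalised to RIBOGREEN total RNA. Percent inhibition vs untreated cells; IC50 derived.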

human SMAD7 mRNA [2] = experiment: Antisense inhibition of human SMAD7 mRNA expression in Hep3B cells by 5-10-5 MOE gapmers, single concentration, electroporation, RT-PCR (Example 1, Study 1 and 2); format: cell-based
Method in brief: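 Readout is percent SMAD7 mRNA inhibition versus untreated cells, measured by qRT-PCR (RTS5062) and corrected for total RNA by RIBOGREEN. Oligonucleotide, 5,000 nM or 15,000 nM, was delivered by electroporation into Hep3B cells at 20,000 per well. RNA was collected about 24 h later.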

[3] = 312.5 nM, Study 1, relative to untreated control cells
[4] = Study 2, electroporation with 15,000 nM antisense oligonucleotide, 5-10-5 MOE gapmers targeting SEQ ID NO: 1 and 2
[5] = electroporation, 5,000 nM, approximately 24 hours, relative to untreated control cells, gapmers targeting SEQ ID NO: 1 and 2
[6] = electroporation, 15,000 nM antisense oligonucleotide (Study 2), 5-10-5 MOE gapmers targeting SEQ ID NO: 1 and 2
[7] = electroporation with 15,000 nM antisense oligonucleotide (Study 2), 5-10-5 MOE gapmers targeting SEQ ID NO: 1 and 2
[8] = electroporation, 15,000 nM, approximately 24 hours, relative to untreated control cells, gapmers targeting SEQ ID NO: 1 and 2

Substance | % inhibition of SMAD7 mRNA expression (human SMAD7 mRNA [1]; [3]) [%] | % inhibition of SMAD7 mRNA expression (human SMAD7 mRNA [1]; 1250.0 nM, Study 1) [%] | % inhibition of SMAD7 mRNA expression (human SMAD7 mRNA [1]; 5000.0 nM, Study 1) [%] | % inhibition of SMAD7 mRNA expression (human SMAD7 mRNA [1]; 20000.0 nM, Study 1) [%] | IC50 (human SMAD7 mRNA [1]) | % Inhibition (human SMAD7 mRNA [2]; [4]) [%] | % inhibition of SMAD7 mRNA expression (human SMAD7 mRNA [2]; [5]) [%] | % inhibition of SMAD7 mRNA expression (human SMAD7 mRNA [2]; [6]) [%] | % Inhibition of SMAD7 mRNA (human SMAD7 mRNA [2]; [7]) [%] | % inhibition of SMAD7 mRNA expression (human SMAD7 mRNA [2]; [4]) [%] | % inhibition of SMAD7 mRNA expression (human SMAD7 mRNA [2]; [7]) [%] | % inhibition of SMAD7 mRNA expression (human SMAD7 mRNA [2]; [8]) [%]
771390 (antisense e[5mC]*eG*eG*e[5mC]*eT*dG*d[5mC]*d[5mC]*d[5mC]*d[5mC]*dA*d[5mC]*d[5mC]*d[5mC]*d[5mC]*eG*e[5mC]*eG*e[5mC]*eG) [compound 771390] | 0 | 12 | 26 | 51 | > 20 µM | 66 | 32 | – | – | – | – | –
771506 (antisense eG*e[5mC]*eT*e[5mC]*eA*dG*d[5mC]*dT*d[5mC]*dA*d[5mC]*dG*d[5mC]*dT*d[5mC]*eT*eG*eT*e[5mC]*e[5mC]) [compound 771506] | 54 | 1 | 5 | 44 | > 20 µM | – | – | 53 | – | – | – | –
771770 (antisense e[5mC]*eT*eG*eT*eT*dG*dG*d[5mC]*dA*dG*dT*dG*d[5mC]*dT*d[5mC]*e[5mC]*e[5mC]*eA*e[5mC]*e[5mC]) [compound 771770] | 0 | 11 | 27 | 51 | > 20 µM | – | – | 61 | – | – | – | –
771944 (antisense eG*eG*eT*eA*eA*dT*dT*dT*dT*d[5mC]*d[5mC]*dT*d[5mC]*dA*dA*e[5mC]*eA*eG*eG*e[5mC]) [compound 771944] | 0 | 34 | 35 | 48 | > 20 µM | – | – | 8 | 50 | – | – | –
771737 (antisense eT*e[5mC]*eA*eA*eA*dT*dG*dA*dA*d[5mC]*d[5mC]*d[5mC]*dT*dG*dG*eT*eT*eA*eT*eA) [compound 771737] | 0 | 2 | 0 | 16 | – | – | – | 57 | – | – | – | –
771820 (antisense eG*eG*eT*e[5mC]*eA*dA*dA*d[5mC]*dT*dT*dG*dT*dG*dG*dT*eA*eA*eA*eA*eT) [compound 771820] | 3 | 3 | 7 | 7 | > 20 µM | 29 | – | – | – | – | – | –
771574 (antisense e[5mC]*eG*e[5mC]*eT*eT*dG*dG*dG*dA*d[5mC]*dT*dG*d[5mC]*dA*dA*eA*e[5mC]*e[5mC]*eT*e[5mC]) [compound 771574] | 0 | 5 | 36 | 58 | 13 µM | – | – | – | – | 66 | – | –
771634 (antisense eT*eG*eA*e[5mC]*eG*dG*dA*d[5mC]*d[5mC]*dA*dA*dA*dT*d[5mC]*d[5mC]*eT*eT*e[5mC]*eT*eT) [compound 771634] | 0 | 3 | 40 | 36 | > 20 µM | – | – | – | – | – | 53 | –
771850 (antisense eT*e[5mC]*e[5mC]*e[5mC]*eA*d[5mC]*dT*dT*d[5mC]*dT*d[5mC]*d[5mC]*dT*d[5mC]*dT*eG*eG*e[5mC]*eT*eG) [compound 771850] | 0 | 8 | 20 | 44 | > 20 µM | – | – | 58 | – | – | – | –
771788 (antisense e[5mC]*e[5mC]*eA*eA*e[5mC]*dT*d[5mC]*dT*dG*dA*dA*d[5mC]*dG*dG*dA*eA*eA*eG*eA*eA) [compound 771788] | 1 | 0 | 0 | 0 | > 20 µM | 30 | – | – | – | – | – | –
771704 (antisense e[5mC]*eA*eG*eG*eA*dG*dG*dG*dT*dA*dT*dG*d[5mC]*dA*d[5mC]*eA*e[5mC]*eT*e[5mC]*eT) [compound 771704] | 14 | 19 | 30 | 54 | > 20 µM | – | – | 32 | 55 | – | – | –
771773 (antisense eT*e[5mC]*eT*eT*eT*dT*d[5mC]*dG*d[5mC]*dA*dT*d[5mC]*d[5mC]*dT*d[5mC]*eA*eG*eG*eA*eA) [compound 771773] | 0 | 0 | 0 | 42 | > 20 µM | – | – | – | – | – | – | 57
771822 (antisense e[5mC]*eA*e[5mC]*e[5mC]*eA*dA*dA*dA*d[5mC]*dA*dA*dG*dT*dG*dT*e[5mC]*eT*eA*e[5mC]*e[5mC]) [compound 771822] | 0 | 0 | 30 | 45 | > 20 µM | 44 | – | – | – | – | – | –
771849 (antisense e[5mC]*eT*eA*eG*eG*d[5mC]*dT*dG*dG*dT*d[5mC]*dA*d[5mC]*dT*dT*e[5mC]*e[5mC]*eA*e[5mC]*eT) [compound 771849] | 25 | 0 | 10 | 35 | > 20 µM | – | – | 66 | – | – | – | –
771641 (antisense eA*eG*eT*eT*eA*dG*dG*dT*dG*dT*d[5mC]*dA*dG*d[5mC]*d[5mC]*eT*eA*eG*eG*eA) [compound 771641] | 3 | 16 | 24 | 50 | > 20 µM | – | – | – | – | – | 71 | –
771797 (antisense eG*e[5mC]*eA*e[5mC]*eA*dG*dA*d[5mC]*dT*dG*d[5mC]*d[5mC]*dA*dA*dA*eT*e[5mC]*eA*e[5mC]*eA) [compound 771797] | 1 | 0 | 15 | 35 | > 20 µM | – | – | – | – | – | – | 62
771734 (antisense e[5mC]*eT*e[5mC]*eA*eA*dA*d[5mC]*d[5mC]*dT*dT*dT*d[5mC]*dA*dG*dA*e[5mC]*e[5mC]*eA*eT*e[5mC]) [compound 771734] | 0 | 0 | 30 | 53 | > 20 µM | 64 | – | – | – | – | – | –
771636 (antisense e[5mC]*e[5mC]*eT*eT*eG*dG*dG*dT*dT*dA*dT*dG*dA*d[5mC]*dG*eG*eA*e[5mC]*e[5mC]*eA) [compound 771636] | – | – | – | – | > 20 µM and 16 µM | – | – | – | – | 0 | – | –
771831 (antisense e[5mC]*eG*eA*eT*e[5mC]*dA*dT*dT*dT*dT*d[5mC]*dT*dA*d[5mC]*dA*e[5mC]*e[5mC]*eT*eT*eT) [compound 771831] | 0 | 13 | 32 | 51 | 16 µM | 66 | – | – | – | – | – | –
483663 (antisense e[5mC]*eA*eG*e[5mC]*e[5mC]*dT*d[5mC]*dT*dT*dG*dA*d[5mC]*dT*dT*d[5mC]*e[5mC]*eG*eA*eG*eG) [compound 483663] | 0 | 0 | 14 | 27 | > 20 µM | 56 | 47 | 41 | 35 | – | – | 49
771869 (antisense eA*eG*e[5mC]*e[5mC]*eA*dA*dG*dT*dG*dT*d[5mC]*d[5mC]*dA*dT*d[5mC]*eA*eA*eG*e[5mC]*eA) [compound 771869] | 10 | 0 | 24 | 43 | > 20 µM | – | – | – | – | – | – | 62
771407 (antisense eA*eG*eG*eA*eG*d[5mC]*dG*dA*dA*d[5mC]*dA*dT*dG*dA*d[5mC]*e[5mC]*eT*e[5mC]*e[5mC]*eG) [compound 771407] | 17 | 0 | 30 | 46 | > 20 µM | 59 | – | – | – | – | – | –
